Starred links: 1 amine or outer side, 2 acyl side, 3 side chain; linkers in the order of their positions; H or OH if unused. Positions of bridges follow the written chain, without caps; N, C: chain ends. Residues, ends and D or L forms follow the SMILES beside them. *: point of attachment. C20 diacid = O=C(O)CCCCCCCCCCCCCCCCCCC(=O)*; γGlu = O=C(O)[C@H](CCC(=O)[*:2])N[*:1]

The nature of series [1]: Assay (III) ThT fibrillation assay for physical stability. To be noted: ThT fibrillation assay. It counts as physicochemical. In outline:
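Freshly prepared formulations, pH-adjusted, with 1 μM ThT; four or eight replicates incubated at 37 °C under 960 rpm orbital shaking. Fluorescence (ex 444/em 485 nm) read every 20 min; […]. Peptide concentration measured by RP-HPLC before and after the run.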

Another series concerns food intake. Nature of the series: Assay (I) efficacy testing on appetite (food intake), ad libitum fed rat model. The format is in vivo, Sprague Dawley (SD) rats. The method in brief:
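Food consumption was logged per animal every hour up to 7 h and again at 24 h (occasionally 48 h) after a single 0.01–3 mg/kg dose, given sc, po or ip at dark-phase onset. Ad libitum fed SD rats, 200–250 g, kept on inverted light/dark cycle; vehicle group included, outliers removed by Grubbs test.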

Take `CC[C@H](C)[C@H](NC(=O)[C@@H]1CCCN1C(=O)CNC(=O)[C@H](Cc1ccccc1)NC(=O)[C@H](CC(N)=O)NC(=O)[C@H](CC(N)=O)NC(=O)[C@H](CO)NC(=O)[C@H](CO)NC(=O)[C@H](CCCNC(=N)N)NC(=O)[C@H](Cc1c[nH]cn1)NC(=O)[C@H](CC(C)C)NC(=O)[C@H](Cc1ccccc1)NC(=O)[C@H](CCC(=O)O)NC(=O)[C@H](C)NC(=O)[C@H](CC(C)C)NC(=O)[C@H](CCCNC(=N)N)NC(=O)[C@H](CCC(N)=O)NC(=O)[C@@H](NC(=O)[C@H](C)NC(=O)[C@@H]1CSSC[C@H](NC(=O)[C@H](Cc2c[nH]cn2)NC(=O)CC[C@H](NC(=O)CCCCCCCCCCCCCCCCCCC(=O)O)C(=O)O)C(=O)N[C@@H](CC(N)=O)C(=O)N[C@@H]([C@@H](C)O)C(=O)N[C@@H](C)C(=O)N[C@@H]([C@@H](C)O)C(=O)N1)[C@@H](C)O)C(=O)N[C@@H](CC(C)C)C(=O)N1CCC[C@H]1C(=O)N1CCC[C@H]1C(=O)N[C@H](C(=O)N[C@@H](CC(N)=O)C(=O)N[C@H](C(=O)NCC(=O)N[C@@H](CO)C(=O)N[C@@H](CC(N)=O)C(=O)N[C@H](C(=O)N[C@@H](Cc1ccc(O)cc1)C(N)=O)[C@@H](C)O)C(C)C)[C@@H](C)O` [Example 1, N-alpha-[(S)-4-Carboxy-4-(19-carboxynonadecanoylamino)butyryl]-[His1,Glu14,His17,Arg18]-pramlintide] ({C20 diacid-γGlu}-HCNTATCATQRLAEFLHRSSNNFGPILPPTNVGSNTY-NH2; disulfide 2-7 (inferred)): the “ThT pH 4.0 lag time (h)” value in series [1] was determined as 11 h. In addition, the “Food intake reduction 0-24 h 3 nmol/kg (%)” value in the series with food intake (0-24 h) was found to be 50%. For the same compound, the “Food intake reduction 0-24 h 30 nmol/kg (%)” value in the series on food intake (0-24 h, 30 nmol/kg) is listed as 93%. The “Food intake reduction 24-48 h 3 nmol/kg (%)” value in the series on food intake (24-48 h) is given as 45%. The “Food intake reduction 24-48 h 30 nmol/kg (%)” value in the series with food intake (24-48 h, 30 nmol/kg) turned out to be 92%.
`CC[C@H](C)[C@H](NC(=O)[C@@H]1CCCN1C(=O)CNC(=O)[C@H](Cc1ccccc1)NC(=O)[C@H](CC(N)=O)NC(=O)[C@H](CC(N)=O)NC(=O)[C@H](CO)NC(=O)[C@H](CO)NC(=O)[C@H](Cc1c[nH]cn1)NC(=O)[C@H](Cc1c[nH]cn1)NC(=O)[C@H](CC(C)C)NC(=O)[C@H](Cc1ccccc1)NC(=O)[C@H](CCC(=O)O)NC(=O)[C@H](C)NC(=O)[C@H](CC(C)C)NC(=O)[C@H](CCCNC(=N)N)NC(=O)[C@H](CCC(N)=O)NC(=O)[C@@H](NC(=O)[C@H](C)NC(=O)[C@@H]1CSSC[C@H](NC(=O)[C@H](Cc2c[nH]cn2)NC(=O)CC[C@H](NC(=O)CCCCCCCCCCCCCCCCCCC(=O)O)C(=O)O)C(=O)N[C@@H](CC(N)=O)C(=O)N[C@@H]([C@@H](C)O)C(=O)N[C@@H](C)C(=O)N[C@@H]([C@@H](C)O)C(=O)N1)[C@@H](C)O)C(=O)N[C@@H](CC(C)C)C(=O)N1CCC[C@H]1C(=O)N1CCC[C@H]1C(=O)N[C@H](C(=O)N[C@@H](CC(N)=O)C(=O)N[C@H](C(=O)NCC(=O)N[C@@H](CO)C(=O)N[C@@H](CC(N)=O)C(=O)N[C@H](C(=O)N[C@@H](Cc1ccc(O)cc1)C(N)=O)[C@@H](C)O)C(C)C)[C@@H](C)O` [Example 18, N-alpha-[(S)-4-Carboxy-4-(19-carboxynonadecanoylamino)butyryl]-[His1,Glu14,His17]-pramlintide] ({C20 diacid-γGlu}-HCNTATCATQRLAEFLHHSSNNFGPILPPTNVGSNTY-NH2; disulfide 2-7 (inferred); C-terminus assumed): in the series with food intake (0-24 h), the “Food intake reduction 0-24 h 3 nmol/kg (%)” value was found to be 40%. In the series on food intake (24-48 h), the “Food intake reduction 24-48 h 3 nmol/kg (%)” value worked out at 32%.

For the origin of these results see patent publication US8722849B2, “Polypeptides” (Novo Nordisk A/S, priority 2011, dated 2014).
